21 molecules from US6335350B1, “Acetamide and substituted acetamide-containing thiourea inhibitors of herpes viruses” (American Home Products Corporation, priority 1998, dated 2002) can be followed below.

Values after ≈ are worked out from the molar mass of the structure shown. A value given as a limit tells only on which side of the number the result lay.

The subject of assay [1] is HCMV wild-type. As to the kind of experiment: HCMV yield assay. The class given is cell-based, human cytomegalovirus. The conditions noted are these: human foreskin fibroblasts; for IC50: Human betaherpesvirus 5, Fibroblast, read-out: IC50 Ug/ml HCMV. In short, it runs like this: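 Value is the compound amount cutting virus yield titer by 50% (IC50) or 90% (IC90). Human foreskin fibroblasts infected with wild-type HCMV (MOI typically 0.2) under varying compound; progeny harvested day 3, titered compound-free on fibroblasts, plaques scored at 2 weeks.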

Assay [2] concerns VZV strain Ellen. Nature of the assay: VZV Antiviral (ELISA) Assay. Format: cell-based, varicella-zoster virus. The settings on record: human foreskin fibroblast cells; for IC50 / inhibition at 10 µg/mL: Human alphaherpesvirus 3, Fibroblast; for IC50: read-out: IC50 Ug/ml VZV; for inhibition at 10 µg/mL: read-out: % inhibition 10 ug/ml VZV, 10 ug/ml. In short, it runs like this:
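First, fibroblasts are infected at multiplicity below 0.1 and kept overnight. The harvested cell mixture then goes onto compound-containing wells for three days at 37° C. Finally, cells are fixed and viral gpII is measured by fluorogenic ELISA.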

For assay [3], the system named is HSV-1. As to the kind of experiment: HSV Antiviral (ELISA) Assay. The class given is cell-based, herpes simplex virus type 1. The conditions noted are these: Vero cells, HSV-1; for IC50: Human alphaherpesvirus 1, Vero, read-out: IC50 Ug/ml HSV. In short, it runs like this:
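Replication measured as glycoprotein D signal in fixed cells: anti-gD antibody plus β-galactosidase-linked secondary, fluorogenic substrate read at 365/450 nm. Vero cells (2% FBS DMEM) received compound 30 min pre-infection, HSV-1 MOI 0.006, ~24 h incubation; IC50 relative to no-compound fluorescence.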
(In general: In an ELISA, binding on a coated surface is turned into a signal by an enzyme label.)

As to `CC(=O)Nc1ccc(NC(=S)Nc2ccc(C(=O)O)c(Cl)c2)cc1` [Example 898, 4-[3-(4-Acetylamino-phenyl)-thioureido]-2-chloro-benzoic acid], the IC50 in assay [1] is greater than 50 µg/mL; in assay [2], greater than 10 µg/mL; in assay [3], greater than 50 µg/mL. In addition, in assay [2], the inhibition at 10 µg/mL was 0%.

Regarding `CC(=O)Nc1ccc(NC(=S)Nc2ccc(C#N)c(Cl)c2)cc1` [Example 899, N-{4-[3-(3-Chloro-4-cyano-phenyl)-thioureido]-phenyl}-acetamide], the IC50 in assay [1] was greater than 10 µg/mL; in assay [2] it was greater than 10 µg/mL; in assay [3] it was 10 µg/mL (≈ 29 µM). For the same molecule, the inhibition at 10 µg/mL in assay [2] is 7%.

With `CC(=O)Nc1ccc(NC(=S)Nc2cc(Cl)c(-n3cccc3)cc2Oc2ccc(Cl)cc2)cc1` [Example 900, N-(4-{3-[5-Chloro-2-(4-chloro-phenoxy)-4-pyrrol-1-yl-phenyl]-thioureido}-phenyl)-acetamide], the IC50 in assay [1] was 2 µg/mL (≈ 3.91 µM); in assay [2], 2.5 µg/mL (≈ 4.89 µM); in assay [3] it was greater than 10 µg/mL. Besides, the inhibition at 10 µg/mL in assay [2] worked out at 124%.

For the molecule `CC(=O)Nc1ccc(NC(=S)Nc2ccc(Cl)c(Cl)c2)cc1` [Example 901, N-{4-[3-(3,4-Dichloro-phenyl)-thioureido]-phenyl}-acetamide], the IC50 in assay [1] was 2.5 µg/mL (≈ 7.06 µM); in assay [2], greater than 10 µg/mL; in assay [3], 1.5 µg/mL (≈ 4.23 µM). Besides, in assay [2], the inhibition at 10 µg/mL is 1%.

Regarding `CC(=O)Nc1ccc(NC(=S)Nc2ccc(F)c(Cl)c2)cc1` [Example 902, N-{4-[3-(3-Chloro-4-fluoro-phenyl)-thioureido]-phenyl}-acetamide], the values for the IC50 in assay [1], in assay [2] and in assay [3] were 12 µg/mL (≈ 35.5 µM), greater than 10 µg/mL and 4 µg/mL (≈ 11.8 µM), respectively. In assay [2], the inhibition at 10 µg/mL stood at 1%.

With `CC(=O)Nc1ccc(NC(=S)Nc2ccc(I)c(Cl)c2)cc1` [Example 903, N-{4-[3-(3-Chloro-4-iodo-phenyl)-thioureido]-phenyl}-acetamide], the IC50 in assay [1] was 0.3 µg/mL (≈ 0.673 µM); in assay [2], greater than 10 µg/mL; in assay [3], 10 µg/mL (≈ 22.4 µM). The inhibition at 10 µg/mL in assay [2] amounted to 26%.

On to `CC(=O)Nc1ccc(NC(=S)Nc2ccc(Br)c(Cl)c2)cc1` [Example 904, N-{4-[3-(4-Bromo-3-chloro-phenyl)-thioureido]-phenyl}-acetamide], for which the IC50 was 1 µg/mL (≈ 2.51 µM) in assay [1], greater than 10 µg/mL in assay [2] and 4 µg/mL (≈ 10 µM) in assay [3]. Besides, the inhibition at 10 µg/mL in assay [2] came out at 26%.

Take `CC(=O)Nc1ccc(NC(=S)Nc2ccc(N(CCO)CCO)c(Cl)c2)cc1` [Example 905, N-[4-(3-{4-[Bis-(2-hydroxy-ethyl)-amino]-3-chloro-phenyl}-thioureido)-phenyl]-acetamide]: the IC50 in assay [1] was greater than 50 µg/mL; in assay [2], greater than 10 µg/mL; in assay [3] it was greater than 50 µg/mL. In assay [2], the inhibition at 10 µg/mL stood at 36%.

As for `CCCCCCN(C)c1ccc(NC(=S)Nc2ccc(NC(C)=O)cc2)cc1Cl` [Example 906, N-(4-{3-[3-Chloro-4-(hexyl-methyl-amino)-phenyl]-thioureido}-phenyl)-acetamide], the IC50 is 1.5 µg/mL (≈ 3.46 µM) in assay [1], greater than 10 µg/mL in assay [2] and greater than 10 µg/mL in assay [3]. Also, the inhibition at 10 µg/mL in assay [2] was 32%.

As for `CC(=O)Nc1ccc(NC(=S)Nc2ccc(N(C)CC(C)C)c(Cl)c2)cc1` [Example 907, N-(4-{3-[3-Chloro-4-(isobutyl-methyl-amino)-phenyl]-thioureido}-phenyl)-acetamide], the IC50 is 3 µg/mL (≈ 7.41 µM) in assay [1], greater than 10 µg/mL in assay [2] and greater than 10 µg/mL in assay [3]. Also, the inhibition at 10 µg/mL in assay [2] was determined as 19%.

`CC(=O)Nc1ccc(NC(=S)Nc2ccc(C(F)(F)F)c(Cl)c2)cc1` [Example 908, N-{4-[3-(3-Chloro-4-trifluoromethyl-phenyl)-thioureido]-phenyl}-acetamide]: the IC50 was 0.6 µg/mL (≈ 1.55 µM) in assay [1], greater than 10 µg/mL in assay [2] and greater than 10 µg/mL in assay [3]. In addition, the inhibition at 10 µg/mL in assay [2] is 36%.

On to `CC(=O)Nc1ccc(NC(=S)Nc2ccc(-c3ccno3)c(Cl)c2)cc1` [Example 924, N-{4-[3-(3-Chloro-4-isoxazol-5-yl-phenyl)-thioureido]-phenyl}-acetamide], for which the IC50 is 0.9 µg/mL (≈ 2.33 µM) in assay [1], greater than 10 µg/mL in assay [2] and greater than 10 µg/mL in assay [3]. Moreover, the inhibition at 10 µg/mL in assay [2] is 4%.

For `CC(=O)Nc1ccc(NC(=S)Nc2ccc(-c3cc[nH]n3)c(Cl)c2)cc1` [Example 925, N-(4-{3-[3-Chloro-4-(1H-pyrazol-3-yl)-phenyl]-thioureido}-phenyl)-acetamide], the figures for the IC50 in assay [1], in assay [2] and in assay [3] were 3.5 µg/mL (≈ 9.07 µM), greater than 10 µg/mL and greater than 10 µg/mL, respectively. Besides, the inhibition at 10 µg/mL in assay [2] was 32%.

As for `CC(=O)Nc1ccc(NC(=S)Nc2cccc(Cl)c2Cl)cc1` [Example 926, N-{4-[3-(2,3-Dichloro-phenyl)-thioureido]-phenyl}-acetamide], the figures for the IC50 in assay [1], in assay [2] and in assay [3] were 10 µg/mL (≈ 28.2 µM), greater than 10 µg/mL and greater than 10 µg/mL, respectively. In assay [2], the inhibition at 10 µg/mL was 16%.

Turning to `CC(=O)Nc1ccc(NC(=S)Nc2cc(Cl)ccc2Cl)cc1` [Example 930, N-{4-[3-(2,5-Dichloro-phenyl)-thioureido]-phenyl}-acetamide], the IC50 in assay [1] was greater than 10 µg/mL; in assay [2], greater than 10 µg/mL; in assay [3] it was 10 µg/mL (≈ 28.2 µM). Besides, the inhibition at 10 µg/mL in assay [2] worked out at 42%.

Regarding `CC(=O)Nc1ccc(NC(=S)Nc2cc(Cl)cc(Cl)c2)cc1` [Example 933, N-{4-[3-(3,5-Dichloro-phenyl)-thioureido]-phenyl}-acetamide], the IC50 in assay [1] is 1.2 µg/mL (≈ 3.39 µM); in assay [2], greater than 10 µg/mL; in assay [3], greater than 10 µg/mL. The inhibition at 10 µg/mL in assay [2] was 21%.

As to `CC(=O)Nc1ccc(NC(=S)Nc2cc(Cl)c(Cl)c(Cl)c2)cc1` [Example 936, N-{4-[3-(3,4,5-Trichloro-phenyl)-thioureido]-phenyl}-acetamide], the IC50 in assay [1] was 1 µg/mL (≈ 2.57 µM); in assay [2], greater than 10 µg/mL; in assay [3] it was 1.5 µg/mL (≈ 3.86 µM). Besides, in assay [2], the inhibition at 10 µg/mL is 51%.

For the molecule “N-{4-[3-(4-Acetylamino-phenyl)-thioureido]-2-chloro-phenyl}-2-dipropylamino-acetamide [Example 410]”, the “IC50 Ug/ml HCMV” value in assay [1] is greater than 10 Ug/ml. Besides, in assay [2], the “% inhibition 10 ug/ml VZV” value was 26% and the “IC50 Ug/ml VZV” value is on record as greater than 10 Ug/ml. Also, the “IC50 Ug/ml HSV” value in assay [3] is recorded as greater than 10 Ug/ml.

In the case of “N-{4-[3-(4-Acetylamino-phenyl)-thioureido]-2-chloro-phenyl}-2-pyrrolidin-1-yl-acetamide [Example 415]”, the “IC50 Ug/ml HCMV” value in assay [1] is greater than 10 Ug/ml. In assay [2], the “% inhibition 10 ug/ml VZV” value is on record as 26% and the “IC50 Ug/ml VZV” value stood at 4.5 Ug/ml. In assay [3], the “IC50 Ug/ml HSV” value is on record as greater than 10 Ug/ml.

“N-{4-[3-(4-Acetylamino-phenyl)-thioureido]-2-chloro-phenyl}-2-thiomorpholin-4-yl-acetamide [Example 405]”: the “IC50 Ug/ml HCMV” value in assay [1] is greater than 10 Ug/ml. Further, in assay [2], the “% inhibition 10 ug/ml VZV” value is 83% and the “IC50 Ug/ml VZV” value stood at 13 Ug/ml. Further, in assay [3], the “IC50 Ug/ml HSV” value was greater than 10 Ug/ml.

On to “N-{4-[3-(5-Chloro-2,4-dimethoxy-phenyl)-thioureido]-3-methoxy-phenyl}-acetamide [Example 388]”, for which, in assay [1], the “IC50 Ug/ml HCMV” value is given as greater than 10 Ug/ml. Further, in assay [2], the “% inhibition 10 ug/ml VZV” value is 52% and the “IC50 Ug/ml VZV” value is greater than 10 Ug/ml. Further, the “IC50 Ug/ml HSV” value in assay [3] is on record as 0.6 Ug/ml.
